BindingDB's records for patent US12459916 (Bayer Pharma Aktiengesellschaft, 2025)

Target: T1, Interleukin-1 receptor-associated kinase 4 (UniProt A0A8C0TG75)
T1 sequence (A0A8C0TG75 whole entry): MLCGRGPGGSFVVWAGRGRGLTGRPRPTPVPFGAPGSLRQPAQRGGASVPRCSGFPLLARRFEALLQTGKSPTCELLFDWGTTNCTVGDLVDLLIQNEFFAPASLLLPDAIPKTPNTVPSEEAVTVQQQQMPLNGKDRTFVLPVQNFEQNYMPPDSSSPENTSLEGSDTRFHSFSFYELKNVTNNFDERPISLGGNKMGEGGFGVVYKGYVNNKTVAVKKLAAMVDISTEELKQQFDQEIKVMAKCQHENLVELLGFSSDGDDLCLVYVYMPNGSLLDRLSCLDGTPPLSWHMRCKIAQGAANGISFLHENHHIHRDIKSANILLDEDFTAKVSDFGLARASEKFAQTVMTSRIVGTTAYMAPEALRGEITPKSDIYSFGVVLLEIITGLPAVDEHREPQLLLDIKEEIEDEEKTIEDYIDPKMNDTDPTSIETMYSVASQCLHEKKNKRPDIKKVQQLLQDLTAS
Assay: Canine IRAK4 Kinase Assay
Protocol: 50 nl of the respective solution were pipetted into a black low-volume 384-well microtitre plate (Greiner Bio-One, Frickenhausen, Germany), 2 μl of a solution of Irak4 in assay buffer [50 mM HEPES pH 7.5, 5 mM MgCl2, 1.0 mM dithiothreitol, 30 μM activated sodium orthovanadate, 0.1% (w/v) of bovine gamma-globulin (BGG) 0.04% (v/v) nonidet-P40 (Sigma)] were added and the mixture was incubated for 15 min to allow prebinding of the substances to the enzyme prior to the kinase reaction. […] The concentration of the Irak4 was adjusted to the respective activity of the enzyme and set such that the assay was carried out in the linear range. Typical concentrations were in the order of about 0.1 nM.

`CC(C)(O)CCn1cc2cc(NC(=O)c3cccc(C(F)F)n3)c(C(C)(C)O)cc2n1` [US12459916, Example 13] was tested. Which IC50 did it give?
The IC50 was 1.75 nM.

With `Cc1nc(C(=O)Nc2cc3cn(CCC(C)(C)O)nc3cc2C(C)(C)O)ccc1F` [US12459916, Example 19] as the compound, how does the IC50 read?
The IC50 was 8.46 nM.
